Reference: ChEMBL document CHEMBL3407363, “Vitamin D3 analogues that contain modified A- and seco-B-rings as hedgehog pathway inhibitors” (Eur J Med Chem, 2015)
pIC50: −log10 of the molar value.

What was measured:
[1] = Inhibition of hedgehog signaling in mouse C3H10T1/2 cells assessed as reduction in Gli1 mRNA level at 5 uM after 24 hrs by quantitative PCR analysis relative to control; type: cell-based; details: C3H 10T1/2, values are per cent of control
[2] = Inhibition of hedgehog signaling in mouse C3H10T1/2 cells assessed as reduction in Gli1 mRNA level after 24 hrs by quantitative PCR analysis; type: cell-based; details: for inhibition: C3H 10T1/2; for pIC50: C3H 10T1/2, 24 h
Vitamin D3 receptor [3] = biological target: T1, Vitamin D3 receptor (Mus musculus, UniProt P48281); test: Activation of VDR in mouse ASZ cells assessed as up-regulation of Cyp24A1 mRNA at 5 uM after 24 hrs by quantitative PCR analysis relative to control; type: ADME, cell-based
T1 sequence (P48281 whole entry): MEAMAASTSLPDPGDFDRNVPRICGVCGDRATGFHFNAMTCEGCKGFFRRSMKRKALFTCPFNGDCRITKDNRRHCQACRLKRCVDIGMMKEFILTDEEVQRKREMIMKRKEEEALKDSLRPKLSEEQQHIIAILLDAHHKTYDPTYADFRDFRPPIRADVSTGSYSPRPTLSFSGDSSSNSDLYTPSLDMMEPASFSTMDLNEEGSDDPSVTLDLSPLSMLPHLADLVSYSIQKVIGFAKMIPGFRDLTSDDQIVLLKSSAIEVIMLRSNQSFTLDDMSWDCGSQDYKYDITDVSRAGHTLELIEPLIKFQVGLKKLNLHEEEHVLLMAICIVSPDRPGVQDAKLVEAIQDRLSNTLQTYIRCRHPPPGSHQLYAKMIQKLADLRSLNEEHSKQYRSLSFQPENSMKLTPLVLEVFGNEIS

[4] = biological target: T2, Vitamin D3 receptor (Homo sapiens) (UniProt P11473); test: Binding affinity to full length human VDR by fluorescent displacement assay
T2 sequence (whole entry): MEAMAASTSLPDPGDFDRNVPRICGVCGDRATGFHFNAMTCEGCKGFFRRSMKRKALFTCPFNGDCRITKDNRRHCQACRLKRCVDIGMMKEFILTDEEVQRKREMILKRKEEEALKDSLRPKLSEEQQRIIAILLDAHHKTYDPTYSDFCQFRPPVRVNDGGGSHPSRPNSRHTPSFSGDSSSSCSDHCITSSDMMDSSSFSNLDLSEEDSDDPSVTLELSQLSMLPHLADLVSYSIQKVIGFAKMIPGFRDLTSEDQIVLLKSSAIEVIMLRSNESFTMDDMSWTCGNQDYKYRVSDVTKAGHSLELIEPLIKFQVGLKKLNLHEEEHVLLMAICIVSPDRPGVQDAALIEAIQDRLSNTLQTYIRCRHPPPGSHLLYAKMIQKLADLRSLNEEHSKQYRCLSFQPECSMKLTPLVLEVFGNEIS

Vitamin D3 receptor [5] = biological target: T1, Vitamin D3 receptor; test: Activation of VDR in mouse ASZ cells assessed as up-regulation of Cyp24A1 mRNA at 2.5 uM after 24 hrs by quantitative PCR analysis relative to control; type: ADME, cell-based

SMILES: CC(C)CCC[C@@H](C)[C@H]1CC[C@H]2[C@@H](OC(=O)CCc3ccccc3O)CCC[C@]12C
- response, % of control [1]: 47.4%

SMILES: CC(C)CCC[C@@H](C)[C@H]1CC[C@@H]2[C@@H](O)CCC[C@]12C
- response, % of control [1]: 48.7%

SMILES: CC(C)CCC[C@@H](C)[C@H]1CC[C@H]2[C@@H](Nc3ccc(O)cc3)CCC[C@]12C
- response, % of control [1]: 0.7%
- inhibition [2]: Dose-dependent effect
- pIC50 [2]: 6.40
- Activity (Vitamin D3 receptor [3]): 2.7%
- K [4]: > 100 µM

SMILES: CC(C)CCC[C@@H](C)[C@H]1CC[C@H]2[C@@H](Nc3ccccc3O)CCC[C@]12C
- response, % of control [1]: 2%
- inhibition [2]: Dose-dependent effect
- pIC50 [2]: 5.92
- Activity (Vitamin D3 receptor [3]): 4.4%
- K [4]: > 100 µM

SMILES: CC(C)CCC[C@@H](C)[C@H]1CC[C@H]2/C(=C/C(=O)Nc3ccccc3O)CCC[C@]12C
- response, % of control [1]: 1.1%
- inhibition [2]: Dose-dependent effect
- pIC50 [2]: 5.82
- Activity (Vitamin D3 receptor [3]): 14%
- K [4]: > 100 µM

SMILES: CC(C)CCC[C@@H](C)[C@H]1CC=C2C(=O)CCC[C@@]21C
- response, % of control [1]: 63.4%

SMILES: CC(C)CCC[C@@H](C)[C@H]1CC[C@H]2/C(=C/C(=O)Nc3cccc(O)c3)CCC[C@]12C
- response, % of control [1]: 12.1%
- inhibition [2]: Dose-dependent effect
- pIC50 [2]: 6.00
- Activity (Vitamin D3 receptor [3]): 4.5%
- K [4]: > 100 µM

SMILES: CC(C)CCC[C@@H](C)[C@H]1CC[C@H]2[C@@H](OC(=O)c3cccc(O)c3)CCC[C@]12C
- response, % of control [1]: 1.9%
- inhibition [2]: Dose-dependent effect
- pIC50 [2]: 6.13
- Activity (Vitamin D3 receptor [3]): 1.9%
- K [4]: > 100 µM

SMILES: CC(C)CCC[C@@H](C)[C@H]1CC[C@H]2[C@H](CCO)CCC[C@]12C
- response, % of control [1]: 2.8%
- inhibition [2]: Dose-dependent effect
- pIC50 [2]: 5.62
- Activity (Vitamin D3 receptor [3]): 1.3%
- K [4]: > 100 µM

SMILES: CC(C)CCC[C@@H](C)[C@H]1CC[C@H]2/C(=C/CO)CCC[C@]12C
- response, % of control [1]: 15.1%

SMILES: CC(C)CCC[C@@H](C)[C@H]1CC[C@H]2C(=O)CCC[C@]12C
- response, % of control [1]: 66.1%

SMILES: CC(C)CCC[C@@H](C)[C@H]1CC[C@H]2/C(=C/C(=O)Nc3ccc(O)cc3)CCC[C@]12C
- response, % of control [1]: 1.8%
- inhibition [2]: Dose-dependent effect
- pIC50 [2]: 5.92
- Activity (Vitamin D3 receptor [3]): 4.4%
- K [4]: > 100 µM

SMILES: CC(C)CCC[C@@H](C)[C@H]1CC[C@H]2[C@@H](OC(=O)/C=C/c3cccc(O)c3)CCC[C@]12C
- response, % of control [1]: 57.2%

SMILES: CC(C)CCC[C@@H](C)[C@H]1CC[C@H]2[C@H](C(=O)c3cccc(O)c3)CCC[C@]12C
- response, % of control [1]: 11%
- inhibition [2]: Dose-dependent effect
- pIC50 [2]: 5.74
- Activity (Vitamin D3 receptor [3]): 7.8%
- K [4]: > 100 µM

SMILES: CC(C)CCC[C@@H](C)[C@H]1CC[C@H]2[C@H](Nc3ccc(O)cc3)CCC[C@]12C
- response, % of control [1]: 1.3%
- inhibition [2]: Dose-dependent effect
- pIC50 [2]: 6.49
- Activity (Vitamin D3 receptor [3]): 3%
- K [4]: > 100 µM

SMILES: CC(C)CCC[C@@H](C)[C@H]1CC[C@H]2[C@@H](Nc3cccc(O)c3)CCC[C@]12C
- response, % of control [1]: 11.6%
- inhibition [2]: Dose-dependent effect
- pIC50 [2]: 6.00
- Activity (Vitamin D3 receptor [3]): 1.8%
- K [4]: > 100 µM

SMILES: CCOC(=O)/C=C1\CCC[C@]2(C)[C@@H]([C@H](C)CCCC(C)C)CC[C@@H]12
- response, % of control [1]: 107%

SMILES: CC(C)CCC[C@@H](C)[C@H]1CC[C@H]2[C@H](c3cccc(O)c3)CCC[C@]12C
- response, % of control [1]: 47.9%

SMILES: CC(C)CCC[C@@H](C)[C@H]1CC[C@H]2[C@H](O)CCC[C@]12C
- response, % of control [1]: 74%

SMILES: C=C1CC[C@H](O)C/C1=C/C=C1\CCC[C@]2(C)[C@@H]([C@H](C)CCCC(C)C)CC[C@@H]12 [CHOLECALCIFEROL]
- response, % of control [1]: 35.7%
- inhibition [2]: Dose-dependent effect
- pIC50 [2]: 5.39
- Activity (Vitamin D3 receptor [5]): 764%
- K [4]: > 100 µM

SMILES: CC(C)CCC[C@@H](C)[C@H]1CC[C@H]2[C@@H](OC(=O)CCc3ccc(O)cc3)CCC[C@]12C
- response, % of control [1]: 20.1%

SMILES: CC(C)CCC[C@@H](C)[C@H]1CC[C@H]2[C@H](OC(=O)c3cccc(O)c3)CCC[C@]12C
- response, % of control [1]: 30.6%
- inhibition [2]: Dose-dependent effect
- pIC50 [2]: 5.41
- Activity (Vitamin D3 receptor [3]): 1.6%
- K [4]: > 100 µM

SMILES: CC(C)CCC[C@@H](C)[C@H]1CC=C2[C@H](O)CCC[C@@]21C
- response, % of control [1]: 90.1%

SMILES: CC(C)CCC[C@@H](C)[C@H]1CC[C@H]2[C@@H](NC(=O)c3cccc(O)c3)CCC[C@]12C
- response, % of control [1]: 2.5%
- inhibition [2]: Dose-dependent effect
- pIC50 [2]: 6.01
- Activity (Vitamin D3 receptor [3]): 1.8%
- K [4]: > 100 µM

SMILES: CC(C)CCC[C@@H](C)[C@H]1CC[C@H]2/C(=N/O)CCC[C@]12C
- response, % of control [1]: 86.1%

SMILES: CC(C)CCC[C@@H](C)[C@H]1CC[C@H]2[C@@H](OC(=O)/C=C/c3ccc(O)cc3)CCC[C@]12C
- response, % of control [1]: 62.1%

SMILES: CC(C)CCC[C@@H](C)[C@H]1CC[C@H]2[C@@H](O)CCC[C@]12C
- response, % of control [1]: 46.4%

SMILES: CC(C)CCC[C@@H](C)[C@H]1CC[C@H]2C(c3cccc(O)c3)=CCC[C@]12C
- response, % of control [1]: 37.2%

SMILES: CC(C)CCC[C@@H](C)[C@H]1CC[C@H]2[C@H](CO)CCC[C@]12C
- response, % of control [1]: 55.1%

SMILES: CC(C)CCC[C@@H](C)[C@H]1CC[C@H]2[C@@H](OC(=O)Cc3cccc(O)c3)CCC[C@]12C
- response, % of control [1]: 1.8%
- inhibition [2]: Dose-dependent effect
- pIC50 [2]: 6.10
- Activity (Vitamin D3 receptor [3]): 3.5%
- K [4]: > 100 µM

SMILES: CC(C)CCC[C@@H](C)[C@H]1CC[C@H]2[C@@H](OC(=O)/C=C/c3ccccc3O)CCC[C@]12C
- response, % of control [1]: 94.2%

SMILES: CC(C)CCC[C@@H](C)[C@H]1CC[C@@H]2[C@]1(C)CCC[C@@]2(O)c1cccc(O)c1
- response, % of control [1]: 39.5%

SMILES: CC(C)CCC[C@@H](C)[C@H]1CC[C@H]2[C@@H](OC(=O)CCc3cccc(O)c3)CCC[C@]12C
- response, % of control [1]: 15.3%
- inhibition [2]: Dose-dependent effect
- pIC50 [2]: 5.59
- Activity (Vitamin D3 receptor [3]): 7.6%
- K [4]: > 100 µM

SMILES: CC(C)CCC[C@@H](C)[C@H]1CC[C@H]2/C(=C/C(=O)Nc3ccccc3)CCC[C@]12C
- response, % of control [1]: 41.7%
